These molecules were tested on 786-O-Hif-Luc cells (luciferase gene driven by multiple HIF responsive elements) (assay: Luciferase Assay). Details: 24 h, 786-O-Hif-Luc cells, about 24 hours; read-out: Mean Luciferease EC50.
Format: cell-based
Procedure: A pool of infected cells were then selected against 2 μg/mL of puromycin (P8833, Sigma) for 10 days followed by limited dilution to select single clones.
Each concentration was tested in triplicate. After about 24 hours, luciferase activity was determined using ONE-Glo Luciferase Assay Reagent (E6110, Promega) following the manufacturer's recommended procedure. EC50 were calculated by using Dotmatics software.

Row | Compound | EC50 [nM]
1 | O[C@@H]1CCc2c(Oc3cc(F)cc(F)c3)ccc(C(F)(F)F)c21 [Compound 58, (R)-4-(3,5-Difluorophenoxy)-7-(trifluoromethyl)-2,3-dihydro-1H-inden-1-ol] | 160
2 | CS(=O)(=NC#N)c1ccc(Oc2cc(F)cc(C#N)c2)c2c1[C@H](O)[C@H](F)C2 (stereo partly drawn) [Compound 302, N-(((2R,3S)-7-(3-cyano-5-fluorophenoxy)-2-fluoro-3-hydroxy-2,3-dihydro-1H-inden-4-yl)(methyl)(oxo)-λ^6-sulfanylidene)cyanamide] | 110
3 | O=S(=O)(c1ccc(Oc2cc(Cl)c[n+]([O-])c2)c2c1[C@H](O)C(F)(F)C2)C(F)(F)F [Compound 260, (S)-3-Chloro-5-((2,2-difluoro-1-hydroxy-7-((trifluoromethyl)sulfonyl)-2,3-dihydro-1H-inden-4-yl)oxy)pyridine 1-oxide] | 170
4 | Cc1cc(Oc2cc(F)cc(C#N)c2)c2c(c1S(C)(=O)=O)C(O)C(F)(F)C2 (stereo not shown) [Compound 213, 3-((2,2-Difluoro-1-hydroxy-6-methyl-7-(methylsulfonyl)-2,3-dihydro-1H-inden-4-yl)oxy)-5-fluorobenzonitrile] | 770
5 | O=S(=O)(CF)c1ccc(Oc2cc(F)cc(F)c2)c2c1C(O)CC2 [Compound 59, (R)-4-(3,5-Difluorophenoxy)-7-((fluoromethyl)sulfonyl)-2,3-dihydro-1H-inden-1-ol] | 90
6 | CS(=O)(=O)c1ccc(Oc2cc(F)cc(F)c2)c(C(F)F)c1C#N [Compound 93, 2-(Difluoromethyl)-3-(3,5-difluorophenoxy)-6-(methylsulfonyl)benzonitrile] | 680
7 | O=S(=O)(c1ccc(Oc2ccc(F)c(Br)c2)c2c1[C@H](O)C(F)(F)C2)C(F)F [Compound 194, (S)-4-(3-Bromo-4-fluorophenoxy)-7-((difluoromethyl)sulfonyl)-2,2-difluoro-2,3-dihydro-1H-inden-1-ol] | 330
8 | N#Cc1cccc(Oc2ccc(S(=O)(=O)C(F)F)c(CO)c2Br)c1 [Compound 81, 3-(2-Bromo-4-((difluoromethyl)sulfonyl)-3-(hydroxymethyl)phenoxy)benzonitrile] | 850
9 | CS(=O)(=O)c1ccc(Oc2cc(F)cc(C#N)c2)c2c1[C@H](O)C(F)(F)[C@H]2F [Compound 293, 3-fluoro-5-[(1S,3S)-2,2,3-trifluoro-1-hydroxy-7-methylsulfonyl-indan-4-yl]oxy-benzonitrile] | 780
10 | N#Cc1cc(F)cc(Oc2ccc(S(=O)(=O)C(F)(F)F)cc2C#N)c1 [Compound 120, 2-(3-Cyano-5-fluorophenoxy)-5-((trifluoromethyl)sulfonyl)benzonitrile] | 7400
11 | N#Cc1cc(F)cc(Oc2ccc(S(=O)(=O)C(F)(F)F)c3c2CC(F)(F)[C@H]3NCCO)c1 [Compound 291, 3-[(1S)-2,2-difluoro-1-(2-hydroxyethylamino)-7-(trifluoromethylsulfonyl)indan-4-yl]oxy-5-fluoro-benzonitrile] | 3100
12 | O=C1c2c(S(=O)(=O)C(F)F)ccc(Oc3ccc(F)c(F)c3)c2CC1(F)F [Compound 195, 7-((Difluoromethyl)sulfonyl)-4-(3,4-difluorophenoxy)-2,2-difluoro-2,3-dihydro-1H-inden-1-one] | 2560
13 | CS(=O)(=O)c1ccc(Oc2cc(F)cc(C#N)c2)c2c1C(O)CC2 (stereo not shown) [Compound 222, 3-Fluoro-5-((1-hydroxy-7-(methylsulfonyl)-2,3-dihydro-1H-inden-4-yl)oxy)benzonitrile] | 1800
14 | N#Cc1cc(F)cc(Oc2ccc(S(=O)(=O)CF)c3c2CC[C@H]3O)c1 [Compound 62, (R)-3-Fluoro-5-((7-((fluoromethyl)sulfonyl)-1-hydroxy-2,3-dihydro-1H-inden-4-yl)oxy)benzonitrile] | 180
15 | C[C@@H]1Cc2c(Oc3cc(F)cc(C#N)c3)ccc(S(C)(=O)=O)c2[C@@H]1O [Compound 301, 3-fluoro-5-(((1R,2R)-1-hydroxy-2-methyl-7-(methylsulfonyl)-2,3-dihydro-1H-inden-4-yl)oxy)benzonitrile] | 2100
16 | O=S(=O)(c1ccc(Oc2cccc3[nH]ncc23)c2c1[C@H](O)C(F)(F)C2)C(F)(F)F [Compound 263, (S)-4-((1H-Indazol-4-yl)oxy)-2,2-difluoro-7-((trifluoromethyl)sulfonyl)-2,3-dihydro-1H-inden-1-ol] | 780
17 | O=S(=O)(c1ccc(Oc2cc(F)c(F)c3[nH]ncc23)c2c1C(O)C(F)(F)C2)C(F)(F)F (stereo not shown) [Compound 261, 4-((6,7-Difluoro-1H-indazol-4-yl)oxy)-2,2-difluoro-7-((trifluoromethyl)sulfonyl)-2,3-dihydro-1H-inden-1-ol] | 1650

Other lines, results leading:

Row | EC50 [nM] | Compound
18 | 450 | N#Cc1cc(F)cc(Oc2ccc(S(=O)(=O)C(F)F)c(CO)c2Cl)c1 [Compound 42, 3-(2-Chloro-4-((difluoromethyl)sulfonyl)-3-(hydroxymethyl)phenoxy)-5-fluorobenzonitrile]
19 | 2900 | Cc1c(S(=O)(=O)C(F)F)ccc(Oc2cc(F)cc(C#N)c2)c1C#N [Compound 33, 6-(3-Cyano-5-fluorophenoxy)-3-((difluoromethyl)sulfonyl)-2-methylbenzonitrile]
20 | 68 | O=S(=O)(c1ccc(Oc2cc(F)cc(Cl)c2)c2c1[C@H](O)CC2)C(F)(F)F [Compound 56, (R)-4-(3-Chloro-5-fluorophenoxy)-7-((trifluoromethyl)sulfonyl)-2,3-dihydro-1H-inden-1-ol]
21 | 16 | N#Cc1cc(F)cc(Oc2ccc(S(=O)(=O)C(F)F)c3c2CC(F)(F)C3O)c1 (stereo not shown) [Compound 11, 3-[7-(difluoromethylsulfonyl)-2,2-difluoro-1-hydroxy-indan-4-yl]oxy-5-fluoro-benzonitrile]
22 | 2400 | Cc1cc(S(=O)(=O)C(F)F)ccc1Oc1cc(F)cc(C#N)c1 [Compound 136, 3-[4-(Difluoromethylsulfonyl)-2-methyl-phenoxy]-5-fluoro-benzonitrile]
23 | 3600 | N#Cc1cc(F)cc(Oc2ccc(S(=O)(=O)C(F)F)c3c2CCC3F)c1 (stereo not shown) [Compound 202, 3-((7-((Difluoromethyl)sulfonyl)-1-fluoro-2,3-dihydro-1H-inden-4-yl)oxy)-5-fluorobenzonitrile]
24 | 1910 | O=S(=O)(c1ccc(Oc2cc(F)cc(F)c2)c2c1CCC2)C(F)F [Compound 20, 4-((Difluoromethyl)sulfonyl)-7-(3,5-difluorophenoxy)-2,3-dihydro-1H-indene]
25 | 8100 | O=S(=O)(c1ccc(Oc2cc(F)cc(Cl)c2)c(Cl)c1CCl)C(F)F [Compound 46, 2-Chloro-1-(3-chloro-5-fluorophenoxy)-3-(chloromethyl)-4-((difluoromethyl)sulfonyl)benzene]
26 | 390 | N#Cc1c(S(=O)(=O)C(F)F)ccc(Oc2cc(F)cc(Cl)c2)c1Cl [Compound 38, 2-Chloro-3-(3-chloro-5-fluorophenoxy)-6-((difluoromethyl)sulfonyl)benzonitrile]
27 | 1600 | Cc1c(S(C)(=O)=O)ccc(Oc2cc(F)cc(Cl)c2)c1C#N [Compound 50, 6-(3-Chloro-5-fluorophenoxy)-2-methyl-3-(methylsulfonyl)benzonitrile]
28 | 3300 | CC(O)c1c(S(=O)(=O)C(F)(F)F)ccc(Oc2cc(F)cc(Cl)c2)c1Br (stereo not shown) [Compound 103, 1-(2-Bromo-3-(3-chloro-5-fluorophenoxy)-6-((trifluoromethyl)sulfonyl)phenyl)ethan-1-ol]
29 | 1200 | Cc1c(Oc2cc(F)cc(Cl)c2)ccc(S(=O)(=O)C(F)(F)F)c1Cl [Compound 143, 3-Chloro-1-(3-chloro-5-fluoro-phenoxy)-2-methyl-4-(trifluoromethylsulfonyl)benzene]

Same assay, conditions: 24 h, read-out: Mean Luciferease EC50

Row | EC50 [nM] | Compound
30 | 110 | N#Cc1cc(F)cc(Oc2ccc(S(=O)(=O)C(F)(F)F)c3c2CC[C@H]3O)c1 [Compound 57, (R)-3-Fluoro-5-((1-hydroxy-7-((trifluoromethyl)sulfonyl)-2,3-dihydro-1H-inden-4-yl)oxy)benzonitrile]
31 | 63 | CS(=O)(=O)c1ccc(Oc2cc(F)cc(C#N)c2)c2c1C(O)C(F)(F)C2 (stereo not shown) [Compound 223, 3-((2,2-Difluoro-1-hydroxy-7-(methylsulfonyl)-2,3-dihydro-1H-inden-4-yl)oxy)-5-fluorobenzonitrile]
32 | 250 | N#Cc1cc(F)cc(Oc2ccc(S(N)(=O)=O)c3c2[C@H](F)C(F)(F)[C@H]3O)c1 [Compound 339, (1S,3S)-7-(3-cyano-5-fluoro-phenoxy)-1,2,2-trifluoro-3-hydroxy-indane-4-sulfonamide]
33 | 16 | N#Cc1cc(Cl)cc(Oc2ccc(S(=O)(=O)CF)c3c2CC(F)(F)[C@H]3O)c1 [Compound 167, (S)-3-Chloro-5-((2,2-difluoro-7-((fluoromethyl)sulfonyl)-1-hydroxy-2,3-dihydro-1H-inden-4-yl)oxy)benzonitrile]
34 | 15 | N#Cc1cncc(Oc2ccc(S(=O)(=O)C(F)(F)F)c3c2CC(F)(F)[C@H]3O)c1 [Compound 235, (S)-5-((2,2-Difluoro-1-hydroxy-7-((trifluoromethyl)sulfonyl)-2,3-dihydro-1H-inden-4-yl)oxy)nicotinonitrile]
35 | 6.1 | N#Cc1cc(F)cc(Oc2ccc(S(N)(=O)=O)c3c2[C@@H](F)C(F)(F)[C@H]3O)c1 [Compound 338, (1R,3S)-7-(3-cyano-5-fluoro-phenoxy)-1,2,2-trifluoro-3-hydroxy-indane-4-sulfonamide]
36 | 35 | CS(=O)(=O)c1ccc(Oc2cc(F)cc(C#N)c2)c2c1C(O)C(F)C2 (stereo not shown) [Compound 232, 3-Fluoro-5-((2-fluoro-1-hydroxy-7-(methylsulfonyl)-2,3-dihydro-1H-inden-4-yl)oxy)benzonitrile]
37 | 53 | CNS(=O)(=O)c1ccc(Oc2cc(F)cc(F)c2)c2c1[C@H](O)C(F)(F)C2 [Compound 251, (S)-7-(3,5-Difluorophenoxy)-2,2-difluoro-3-hydroxy-N-methyl-2,3-dihydro-1H-indene-4-sulfonamide]

Reference: US10597366B2, “Aryl ethers and uses thereof” (Peloton Therapeutics, Inc., priority 2013, dated 2020)
